Source: patent US10626094B2 (La Jolla Institute of Allergy & Immunology, priority 2014, dated 2020)
pIC50: −log10 of the molar value. Where two headings read alike, the source gives them in different places.

Target: LMPTP-A (Low Molecular Weight Protein Tyrosine Phosphatase-A) enzyme (Homo sapiens (Human), UniProt P24666)
Assay: LMPTP primary screening / LMPTP (OMFP) enzyme inhibition assay, fluorescence intensity
Assay type: biochemical
How it was run: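 Single-concentration screen, test compounds 20 μM final, […]. Enzyme (0.625 nM) and OMFP (400 μM) react 50 min at room temp, dark, in Bis-Tris buffer pH 6.0 containing DTT 1 mM and Triton X-100 0.01%. Read-out: fluorescence intensity.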

[1] = LMPTP-A, OMFP substrate, method of Example 2, read-out: IC50

Chain of LMPTP-A (Low Molecular Weight Protein Tyrosine Phosphatase-A) enzyme (P24666 whole entry): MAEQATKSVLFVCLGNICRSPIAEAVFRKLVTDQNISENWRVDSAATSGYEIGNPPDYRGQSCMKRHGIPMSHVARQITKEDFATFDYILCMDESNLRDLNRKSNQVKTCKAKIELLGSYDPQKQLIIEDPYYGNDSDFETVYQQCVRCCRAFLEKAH

pIC50 [1] | Compound | further results
5.30 to 6.10 | COc1ccc(-c2cc(NCCc3ccc(C(F)(F)F)cc3)c3ccccc3n2)cc1 [Compound G86, [2-(4-methoxyphenyl)(4-quinolyl)]{2-[4-(trifluoromethyl)phenyl]ethyl}amine] | 
< 5.30 | CN(C)c1cc(-c2cccs2)nc2ccccc12 [Compound G17, Dimethyl-(2-thiophen-2-yl-quinolin-4-yl)-amine] | 
6.10 to 6.70 | O=C(NCC1CCNCC1)c1ccc(-c2cc(NCCCN3CCCCC3)c3ccccc3n2)cc1 [Compound I197] | 
< 5.30 | CCN(CC)S(=O)(=O)c1ccccc1-c1cc(NCCCN2CCCCC2)c2ccccc2n1 [Compound I240] | 
5.30 to 6.10 | Fc1ccc(-c2cc(NCCCC3CCCNC3)c3ccccc3n2)cc1 (centres unmarked) [Compound I188, [2-(4-fluorophenyl)(4-quinolyl)](3-piperidylpropyl)amine] | 
5.30 to 6.10 | c1csc(-c2cc(NCCCC3CCCNC3)c3ccccc3n2)c1 (centres unmarked) [Compound I144, (3-piperidylpropyl)(2-(2-thienyl)(4-quinolyl))amine] | 
5.30 to 6.10 | COc1ccc(-c2cc(Nc3ccc(C(F)(F)F)cc3)c3ccccc3n2)cc1 [Compound G42, [2-(4-methoxyphenyl)(4-quinolyl)][4-(trifluoromethyl)phenyl]amine] | 
5.30 to 6.10 | N#Cc1ccccc1-c1cc(Nc2cccc(CN3CCCC3)c2)c2ccccc2n1 [Compound I2, 2-(4-{[3-(pyrrolidinylmethyl)phenyl]amino}-2-quinolyl)benzenecarbonitrile] | 
5.30 to 6.10 | COc1ccc(-c2cc(Nc3cccc(CN4CCNCC4)c3)c3ccccc3n2)cc1 [Compound G59, [2-(4-methoxyphenyl)(4-quinolyl)][3-(piperazinylmethyl)phenyl]amine] | 
5.30 to 6.10 | CN(C)Cc1cc(CO)cc(Nc2cc(-c3cccc(Cl)c3)nc3ccccc23)c1 [Compound I45, (5-[(dimethylamino)methyl]-3-{[2-(3-chlorophenyl)(4-quinolyl)]amino}phenyl)methan-1-ol] | 
5.30 to 6.10 | Fc1cccc(-c2cc(NCCCC3CCCNC3)c3ccccc3n2)c1 (centres unmarked) [Compound I162, [2-(3-fluorophenyl)(4-quinolyl)](3-piperidylpropyl)amine] | 
5.30 to 6.10 | Fc1cc(Cl)ccc1-c1cc(Nc2cccc(CC3CCNCC3)c2)c2ccccc2n1 [Compound I7, [2-(4-chloro-2-fluorophenyl)(4-quinolyl)][3-(4-piperidylmethyl)phenyl]amine] | 
5.30 to 6.10 | COc1ccc(-c2cc(Nc3ccccc3)c3ccccc3n2)cc1 [Compound G35, [2-(4-Methoxy-phenyl)-quinolin-4-yl]-phenyl-amine] | 
6.10 to 6.70 | COCc1ccc(-c2cc(NCCCN3CCCCC3)c3ccccc3n2)cc1 [Compound I135] | 
5.30 to 6.10 | COc1ccc(-c2cc(Nc3ncccn3)c3ccccc3n2)cc1 [Compound G72, [2-(4-methoxyphenyl)(4-quinolyl)]pyrimidin-2-ylamine] | 
5.30 to 6.10 | CC(C)C(=O)Nc1ccc(-c2cc(NCCCN3CCCCC3)c3ccccc3n2)cc1 [Compound I56] | 
5.30 to 6.10 | CCOC(=O)c1cccc(-c2cc(NCCCN3CCCCC3)c3ccccc3n2)c1 [Compound I137] | 
5.30 to 6.10 | [2-(5-bromo-3-chloro-2-fluorophenyl)(4-quinolyl)](3-piperidylpropyl)amine [Compound I239] | 
< 5.30 | NC(=O)c1ccc(-c2cc(NCCCN3CCCCCC3)c3ccccc3n2)cc1 [Compound I219, 4-{4-[(3-azaperhydroepinylpropyl)amino]-2-quinolyl}benzamide] | 
5.30 to 6.10 | NC(=O)c1cccc(-c2cc(NCCCN3CCCCC3)c3ccccc3n2)c1 [Compound I123] | 
6.10 to 6.70 | NC(=O)c1ccc(-c2cc(NCCCN3CCCCC3)c3ccccc3n2)cc1Cl [Compound I82] | 
5.30 to 6.10 | CN(C)C(=O)c1ccc(-c2cc(NCCCN3CCCCC3)c3ccccc3n2)cc1 [Compound I72] | 
5.30 to 6.10 | N#Cc1cccc(Nc2cc(-c3ccccc3C(F)(F)F)nc3ccccc23)c1 [Compound G32, 3-[2-(2-Trifluoromethyl-phenyl)-quinolin-4-ylamino]-benzonitrile] | 
5.30 to 6.10 | c1ccc2c(NCCCN3CCCCC3)cc(-c3ccc4scnc4c3)nc2c1 [Compound I224] | 
5.30 to 6.10 | 2-(3-bromo-4-chloro-2-fluorophenyl)(4-quinolyl)](3-piperidylpropyl)amine [Compound I101] | 
6.10 to 6.70 | Fc1cc(Cl)ccc1-c1cc(NCCCN2CCCCC2)c2ccccc2n1 [Compound I126] | 

pIC50 [1] | Compound | further results
5.30 to 6.10 | COc1ccc(-c2cc(Nc3ccc(CC4CCNCC4)cc3)c3ccccc3n2)cc1 [Compound I32, [2-(4-methoxyphenyl)(4-quinolyl)][4-(4-piperidylmethyl)phenyl]amine] | 
5.30 to 6.10 | c1c[nH]c(-c2cc(NCCCC3CCCNC3)c3ccccc3n2)c1 (centres unmarked) [Compound I175, (3-piperidylpropyl)(2-pyrrol-2-yl(4-quinolyl))amine] | 
5.30 to 6.10 | [2-(4-methoxyphenyl)(4-5,6,7,8-tetrahydroquinolyl)][4-(piperidylmethyl)phenyl]amine [Compound I207] | 
 | Cc1cccc(-c2nc(NCCCN3CCOCC3)c3ccccc3n2)c1 [Entry 1] | pIC50 (Table 1 quinazolinone series, CP sample (cherry pick of DMSO solution from NIH MLSMR), read-out: LMPTP (OMFP) (IC50)): 5.15; pIC50 (Table 1 quinazolinone series, P sample (purchased from commercial sources), read-out: LMPTP (OMFP) (IC50)): 4.87; pIC50 (initial screening hits (Scheme 4), read-out: IC50): 5.15; pIC50 (read-out: LMPTP (OMFP) IC50): 4.87
6.10 to 6.70 | {2-[2,4-bis(trifluoromethyl)phenyl](4-quinolyl)}(3-piperidylpropyl)amine [Compound I168] | 
< 5.30 | C1=C(c2cc(NCCCN3CCCCC3)c3ccccc3n2)OCC1 [Compound I241] | 
5.30 to 6.10 | [2-(2,4-dichlorophenyl)(4-quinolyl)](3-piperidylpropyl)amine [Compound I103] | 
6.10 to 6.70 | COc1ccc(-c2cc(Nc3cccc(CN4CCCC4)c3)c3ccccc3n2)cc1 [Compound G50, [2-(4-methoxyphenyl)(4-quinolyl)][3-(pyrrolidinylmethyl)phenyl]amine] | 
< 5.30 | C[N+]1(C)CCC(Cc2cccc(Nc3cc(-c4cc(C(F)(F)F)cc(C(F)(F)F)c4)nc4ccccc34)c2)CC1 [Compound I51, {3-[(1,1-dimethyl(4-piperidyl))methyl]phenyl} {2-[3,5-bis(trifluoromethyl)phenyl](4-quinolyl)}amine] | 
6.10 to 6.70 | O=C(NC1CCCC1)c1ccc(-c2cc(NCCCN3CCCCC3)c3ccccc3n2)cc1 [Compound I249] | 
5.30 to 6.10 | COc1ccc(-c2cc(Nc3ccc(CC4CCN(S(C)(=O)=O)CC4)cc3)c3ccccc3n2)cc1 [Compound I35, 4-[(4-{[2-(4-methoxyphenyl)(4-quinolyl)]amino}phenyl)methyl]-1-(methylsulfonyl)piperidine] | 
5.30 to 6.10 | CCN1CCC(Cc2ccc(Nc3cc(-c4ccc(OC)cc4)nc4ccccc34)cc2)CC1 [Compound I33, {4-[(1-ethyl(4-piperidyl))methyl]phenyl}[2-(4-methoxyphenyl)(4-quinolyl)]amine] | 
< 5.30 | COc1ccc(-c2cc(Nc3ccccc3C(F)(F)F)c3ccccc3n2)cc1 [Compound G36, [2-(4-Methoxy-phenyl)-quinolin-4-yl]-(2-trifluoromethyl-phenyl)-amine] | 
6.10 to 6.70 | COc1ccc(-c2cc(Nc3cccc(CN(C)C)c3)c3ccccc3n2)cc1 [Compound G58, [(3-{[2-(4-methoxyphenyl)(4-quinolyl)]amino}phenyl)methyl]dimethylamine] | 
5.30 to 6.10 | CCN(CC)Cc1cccc(Nc2cc(-c3ccc(OC)cc3)nc3ccccc23)c1 [Compound G61, (3-Diethylaminomethyl-phenyl)-[2-(4-methoxy-phenyl)-quinolin-4-yl]-amine] | 
6.10 to 6.70 | NCc1ccc(-c2cc(NCCCN3CCCCC3)c3ccccc3n2)cc1 [Compound I148] | 
< 5.30 | c1ccc(-c2cc(NCCN3CCCC3)c3ccccc3n2)cc1 [Compound I181, (2-phenyl(4-quinolyl))(2-pyrrolidinylethyl)amine] | 
< 5.30 | CN(C)c1cc(-c2ccoc2)nc2ccccc12 [Compound G15, (2-Furan-3-yl-quinolin-4-yl)-dimethyl-amine] | 
6.10 to 6.70 | COc1ccc(-c2cc(Nc3cccc(CN4CCOCC4)c3)c3ccccc3n2)cc1 [Compound G55, [2-(4-methoxyphenyl)(4-quinolyl)][3-(morpholin-4-ylmethyl)phenyl]amine] | 
5.30 to 6.10 | COc1ccc(-c2cc(Nc3ccc(C)cc3)c3ccccc3n2)cc1 [Compound G43, [2-(4-methoxyphenyl)(4-quinolyl)](4-methylphenyl)amine] | 
5.30 to 6.10 | CCN1CCN(Cc2ccc(Nc3cc(-c4ccc(OC)cc4)nc4c3CCCC4)cc2)CC1 [Compound I206, {4-[(4-ethylpiperazinyl)methyl]phenyl}[2-(4-methoxyphenyl)(4-5,6,7,8-tetrahydroquinolyl)]amine] | 
< 5.30 | COc1ccc(-c2cc(NCCCN3CCCCC3)c3cc(Cl)ccc3n2)cc1 [Compound G27, [6-Chloro-2-(4-methoxy-phenyl)-quinolin-4-yl]-(3-piperidin-1-yl-propyl)-amine] | 
5.30 to 6.10 | CN(C)c1ccc(-c2cc(NCCCN3CCCCC3)c3ccccc3n2)cc1 [Compound G10, [2-(4-Dimethylamino-phenyl)-quinolin-4-yl]-(3-piperidin-1-yl-propyl)-amine] | 
6.10 to 6.70 | COc1ccc(-c2cc(Nc3ccc(C#N)cc3)c3ccccc3n2)cc1 [Compound G47, 4-{[2-(4-methoxyphenyl)-4-quinolyl]amino}benzenecarbonitrile] | 
5.30 to 6.10 | FC(F)(F)Oc1ccc(-c2cc(NCCCN3CCCCC3)c3ccccc3n2)cc1 [Compound G4, (3-Piperidin-1-yl-propyl)-[2-(4-trifluoromethoxy-phenyl)-quinolin-4-yl]-amine] | 
6.10 to 6.70 | O=C(Nc1ccc(-c2cc(NCCCN3CCCCC3)c3ccccc3n2)cc1)c1ccccc1 [Compound I57] | 

Compound | pIC50 [1] | further results
COc1ccc(-c2cc(Nc3cccnc3)c3ccccc3n2)cc1 [Compound G64] | 5.30 to 6.10 | 
